Assays:
Assay type in all cases: biochemical
Details in all cases: 5 µM inhibitor
EEF2K = biological target: T1, EEF2K (Homo sapiens, UniProt O00418); test: Selectivity panel EEF2K
T1 construct: purchased Life Technologies (Invitrogen SelectScreen); Dyrk1A, Dyrk2 and CK2α in-house or gifts

ROCK2 = biological target: T2, ROCK2 (Homo sapiens, UniProt O75116); test: Selectivity panel ROCK2
T2 construct: purchased Life Technologies (Invitrogen SelectScreen); Dyrk1A, Dyrk2 and CK2α in-house or gifts

MAP2K6 (MKK6) = biological target: T3, MAP2K6 (MKK6) (Homo sapiens, UniProt P52564); test: Selectivity panel MAP2K6
T3 construct: purchased Life Technologies (Invitrogen SelectScreen); Dyrk1A, Dyrk2 and CK2α in-house or gifts
T3 sequence (P52564 whole entry): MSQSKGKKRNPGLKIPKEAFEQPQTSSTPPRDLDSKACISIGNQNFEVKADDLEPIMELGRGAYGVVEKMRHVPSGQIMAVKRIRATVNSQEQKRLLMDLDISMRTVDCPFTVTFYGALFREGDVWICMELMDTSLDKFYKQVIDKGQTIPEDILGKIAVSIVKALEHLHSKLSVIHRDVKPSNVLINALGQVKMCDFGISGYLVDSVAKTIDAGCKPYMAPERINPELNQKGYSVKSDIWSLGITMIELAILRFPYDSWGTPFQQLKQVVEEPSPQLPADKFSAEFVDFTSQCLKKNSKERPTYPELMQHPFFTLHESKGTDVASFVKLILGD

ZAP70 = biological target: T4, ZAP70 (Homo sapiens, UniProt P43403); test: Selectivity panel ZAP70
T4 construct: purchased Life Technologies (Invitrogen SelectScreen); Dyrk1A, Dyrk2 and CK2α in-house or gifts
T4 sequence (P43403 whole entry): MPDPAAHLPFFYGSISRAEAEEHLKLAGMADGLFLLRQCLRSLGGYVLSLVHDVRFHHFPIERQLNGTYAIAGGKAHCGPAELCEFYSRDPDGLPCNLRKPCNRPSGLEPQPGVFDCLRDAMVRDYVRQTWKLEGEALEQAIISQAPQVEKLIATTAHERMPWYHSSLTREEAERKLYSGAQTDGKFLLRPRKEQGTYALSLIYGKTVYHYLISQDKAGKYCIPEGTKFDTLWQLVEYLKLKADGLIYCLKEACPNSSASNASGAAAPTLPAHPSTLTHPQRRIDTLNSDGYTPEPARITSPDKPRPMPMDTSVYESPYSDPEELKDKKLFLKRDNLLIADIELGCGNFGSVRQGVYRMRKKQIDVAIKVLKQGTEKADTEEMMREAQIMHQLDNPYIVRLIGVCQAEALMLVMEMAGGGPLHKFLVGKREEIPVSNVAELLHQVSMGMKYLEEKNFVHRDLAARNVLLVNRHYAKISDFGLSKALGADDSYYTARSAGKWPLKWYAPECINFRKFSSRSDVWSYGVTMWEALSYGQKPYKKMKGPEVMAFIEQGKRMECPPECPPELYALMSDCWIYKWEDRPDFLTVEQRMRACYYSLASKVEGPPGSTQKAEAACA

PLK2/SNK = biological target: T5, PLK2/SNK (Homo sapiens, UniProt Q9NYY3); test: Selectivity panel PLK2/SNK
T5 construct: purchased Life Technologies (Invitrogen SelectScreen); Dyrk1A, Dyrk2 and CK2α in-house or gifts
T5 sequence (Q9NYY3 whole entry): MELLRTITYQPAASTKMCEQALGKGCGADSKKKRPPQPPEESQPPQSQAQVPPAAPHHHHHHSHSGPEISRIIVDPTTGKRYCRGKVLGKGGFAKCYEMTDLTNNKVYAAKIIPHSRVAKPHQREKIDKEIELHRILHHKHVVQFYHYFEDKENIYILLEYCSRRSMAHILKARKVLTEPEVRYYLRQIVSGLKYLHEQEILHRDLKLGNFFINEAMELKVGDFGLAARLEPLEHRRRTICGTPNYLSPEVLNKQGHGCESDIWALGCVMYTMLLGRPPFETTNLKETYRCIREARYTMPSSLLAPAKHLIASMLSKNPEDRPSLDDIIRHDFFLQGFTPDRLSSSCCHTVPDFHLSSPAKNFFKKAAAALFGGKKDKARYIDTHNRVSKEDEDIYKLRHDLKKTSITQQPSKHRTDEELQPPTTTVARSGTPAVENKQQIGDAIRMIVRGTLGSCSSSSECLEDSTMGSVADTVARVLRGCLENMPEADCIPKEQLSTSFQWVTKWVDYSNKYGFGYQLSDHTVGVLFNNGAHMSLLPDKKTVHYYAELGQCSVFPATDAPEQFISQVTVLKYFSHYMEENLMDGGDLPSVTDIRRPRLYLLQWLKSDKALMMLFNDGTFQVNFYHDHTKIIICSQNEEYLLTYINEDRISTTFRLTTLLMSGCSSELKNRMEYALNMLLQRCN

MAPKAPK2 = biological target: T6, MAPKAPK2 (Homo sapiens, UniProt P49137); test: Selectivity panel MAPKAPK2
T6 construct: purchased Life Technologies (Invitrogen SelectScreen); Dyrk1A, Dyrk2 and CK2α in-house or gifts

TBK1 = biological target: T7, TBK1 (Homo sapiens, UniProt Q9UHD2); test: Selectivity panel TBK1
T7 construct: purchased Life Technologies (Invitrogen SelectScreen); Dyrk1A, Dyrk2 and CK2α in-house or gifts

MYLK2 (skMLCK) = biological target: T8, MYLK2 (skMLCK) (Homo sapiens, UniProt Q9H1R3); test: Selectivity panel MYLK2
T8 construct: purchased Life Technologies (Invitrogen SelectScreen); Dyrk1A, Dyrk2 and CK2α in-house or gifts

DAPK3 (ZIPK) = biological target: T9, DAPK3 (ZIPK) (Homo sapiens, UniProt O43293); test: Selectivity panel DAPK3
T9 construct: purchased Life Technologies (Invitrogen SelectScreen); Dyrk1A, Dyrk2 and CK2α in-house or gifts
T9 sequence (O43293 whole entry): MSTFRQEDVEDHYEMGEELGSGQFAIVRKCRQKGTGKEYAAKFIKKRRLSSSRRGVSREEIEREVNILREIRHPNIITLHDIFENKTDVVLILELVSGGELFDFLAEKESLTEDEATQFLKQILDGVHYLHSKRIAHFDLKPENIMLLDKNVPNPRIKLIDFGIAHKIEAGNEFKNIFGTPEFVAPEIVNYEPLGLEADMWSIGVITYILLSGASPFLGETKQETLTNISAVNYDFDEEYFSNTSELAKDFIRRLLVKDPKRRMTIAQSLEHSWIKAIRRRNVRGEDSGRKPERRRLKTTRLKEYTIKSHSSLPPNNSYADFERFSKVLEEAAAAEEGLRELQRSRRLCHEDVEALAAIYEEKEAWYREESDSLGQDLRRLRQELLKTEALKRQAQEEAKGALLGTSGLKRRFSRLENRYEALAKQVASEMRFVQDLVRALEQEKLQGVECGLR

PIM2 = biological target: T10, PIM2 (Homo sapiens, UniProt Q9P1W9); test: Selectivity panel PIM2
T10 construct: purchased Life Technologies (Invitrogen SelectScreen); Dyrk1A, Dyrk2 and CK2α in-house or gifts

MAPK1 (ERK2) = biological target: T11, MAPK1 (ERK2) (Homo sapiens, UniProt P28482); test: Selectivity panel MAPK1
T11 construct: purchased Life Technologies (Invitrogen SelectScreen); Dyrk1A, Dyrk2 and CK2α in-house or gifts

RPS6KA5 (MSK1) = biological target: T12, RPS6KA5 (MSK1) (Homo sapiens, UniProt O75582); test: Selectivity panel RPS6KA5
T12 construct: purchased Life Technologies (Invitrogen SelectScreen); Dyrk1A, Dyrk2 and CK2α in-house or gifts

MKNK1 (MNK1) = biological target: T13, MKNK1 (MNK1) (Homo sapiens, UniProt Q9BUB5); test: Selectivity panel MKNK1
T13 construct: purchased Life Technologies (Invitrogen SelectScreen); Dyrk1A, Dyrk2 and CK2α in-house or gifts
T13 sequence (Q9BUB5 whole entry): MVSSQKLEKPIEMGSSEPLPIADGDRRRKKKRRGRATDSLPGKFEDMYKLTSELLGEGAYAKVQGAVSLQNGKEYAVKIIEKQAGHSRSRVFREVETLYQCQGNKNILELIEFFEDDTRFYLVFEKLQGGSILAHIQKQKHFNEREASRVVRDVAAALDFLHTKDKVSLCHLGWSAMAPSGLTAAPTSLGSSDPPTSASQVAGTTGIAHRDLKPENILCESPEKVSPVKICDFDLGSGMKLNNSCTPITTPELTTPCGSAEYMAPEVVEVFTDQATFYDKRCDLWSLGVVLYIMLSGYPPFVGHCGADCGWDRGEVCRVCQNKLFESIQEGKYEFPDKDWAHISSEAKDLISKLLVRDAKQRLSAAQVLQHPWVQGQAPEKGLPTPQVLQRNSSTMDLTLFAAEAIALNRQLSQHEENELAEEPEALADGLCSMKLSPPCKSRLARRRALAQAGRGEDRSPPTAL

STK23 (MSSK1) = biological target: T14, STK23 (MSSK1) (Homo sapiens, UniProt Q9UPE1); test: Selectivity panel STK23
T14 construct: purchased Life Technologies (Invitrogen SelectScreen); Dyrk1A, Dyrk2 and CK2α in-house or gifts

JAK2 = biological target: T15, JAK2 (Homo sapiens, UniProt O60674); test: Selectivity panel JAK2
T15 construct: purchased Life Technologies (Invitrogen SelectScreen); Dyrk1A, Dyrk2 and CK2α in-house or gifts

HIPK4 = biological target: T16, HIPK4 (Homo sapiens, UniProt Q8NE63); test: Selectivity panel HIPK4
T16 construct: purchased Life Technologies (Invitrogen SelectScreen); Dyrk1A, Dyrk2 and CK2α in-house or gifts

MAPK10 (JNK3) = biological target: T17, MAPK10 (JNK3) (Homo sapiens, UniProt P53779); test: Selectivity panel MAPK10
T17 construct: purchased Life Technologies (Invitrogen SelectScreen); Dyrk1A, Dyrk2 and CK2α in-house or gifts

ACVR1 (ALK2) = biological target: T18, ACVR1 (ALK2) (Homo sapiens, UniProt Q04771); test: Selectivity panel ACVR1
T18 construct: purchased Life Technologies (Invitrogen SelectScreen); Dyrk1A, Dyrk2 and CK2α in-house or gifts

EPHB3 = biological target: T19, EPHB3 (Homo sapiens, UniProt P54753); test: Selectivity panel EPHB3
T19 construct: purchased Life Technologies (Invitrogen SelectScreen); Dyrk1A, Dyrk2 and CK2α in-house or gifts

TAOK2 (TAO1) = biological target: T20, TAOK2 (TAO1) (Homo sapiens, UniProt Q9UL54); test: Selectivity panel TAOK2
T20 construct: purchased Life Technologies (Invitrogen SelectScreen); Dyrk1A, Dyrk2 and CK2α in-house or gifts

DYRK4 = biological target: T21, DYRK4 (Homo sapiens, UniProt Q9NR20); test: Selectivity panel DYRK4
T21 construct: purchased Life Technologies (Invitrogen SelectScreen); Dyrk1A, Dyrk2 and CK2α in-house or gifts
T21 sequence (Q9NR20 whole entry): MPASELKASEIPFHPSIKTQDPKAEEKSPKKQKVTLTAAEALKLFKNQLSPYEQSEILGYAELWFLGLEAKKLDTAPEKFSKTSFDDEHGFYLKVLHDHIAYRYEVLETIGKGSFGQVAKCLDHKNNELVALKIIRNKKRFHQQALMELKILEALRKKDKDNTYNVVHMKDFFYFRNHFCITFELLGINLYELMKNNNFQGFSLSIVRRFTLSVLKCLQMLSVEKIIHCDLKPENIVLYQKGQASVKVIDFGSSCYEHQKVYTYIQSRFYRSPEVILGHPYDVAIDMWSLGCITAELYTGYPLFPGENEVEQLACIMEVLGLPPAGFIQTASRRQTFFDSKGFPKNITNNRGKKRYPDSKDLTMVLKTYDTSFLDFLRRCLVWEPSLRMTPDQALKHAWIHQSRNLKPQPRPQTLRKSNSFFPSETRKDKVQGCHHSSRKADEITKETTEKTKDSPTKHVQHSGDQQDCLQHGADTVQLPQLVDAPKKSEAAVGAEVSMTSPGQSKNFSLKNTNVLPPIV

NEK1 = biological target: T22, NEK1 (Homo sapiens, UniProt Q96PY6); test: Selectivity panel NEK1
T22 construct: purchased Life Technologies (Invitrogen SelectScreen); Dyrk1A, Dyrk2 and CK2α in-house or gifts

NEK7 = biological target: T23, NEK7 (Homo sapiens, UniProt Q8TDX7); test: Selectivity panel NEK7
T23 construct: purchased Life Technologies (Invitrogen SelectScreen); Dyrk1A, Dyrk2 and CK2α in-house or gifts
T23 sequence (Q8TDX7 whole entry): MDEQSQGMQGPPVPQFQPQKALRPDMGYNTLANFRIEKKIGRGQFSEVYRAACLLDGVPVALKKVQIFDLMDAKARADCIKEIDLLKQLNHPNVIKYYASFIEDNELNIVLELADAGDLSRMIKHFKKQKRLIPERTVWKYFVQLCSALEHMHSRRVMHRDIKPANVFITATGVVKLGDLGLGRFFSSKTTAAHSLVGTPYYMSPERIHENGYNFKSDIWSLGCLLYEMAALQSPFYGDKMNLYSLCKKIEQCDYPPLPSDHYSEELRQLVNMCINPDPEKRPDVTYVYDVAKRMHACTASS

IKBKB (IKK beta) = biological target: T24, IKBKB (IKK beta) (Homo sapiens, UniProt O14920); test: Selectivity panel IKBKB
T24 construct: purchased Life Technologies (Invitrogen SelectScreen); Dyrk1A, Dyrk2 and CK2α in-house or gifts

PKN1 (PRK1) = biological target: T25, PKN1 (PRK1) (Homo sapiens, UniProt Q16512); test: Selectivity panel PKN1
T25 construct: purchased Life Technologies (Invitrogen SelectScreen); Dyrk1A, Dyrk2 and CK2α in-house or gifts

MAPK9 (JNK2) = biological target: T26, MAPK9 (JNK2) (Homo sapiens, UniProt P45984); test: Selectivity panel MAPK9
T26 construct: purchased Life Technologies (Invitrogen SelectScreen); Dyrk1A, Dyrk2 and CK2α in-house or gifts

PDK1 = biological target: T27, PDK1 (Homo sapiens, UniProt O15530); test: Selectivity panel PDK1
T27 construct: purchased Life Technologies (Invitrogen SelectScreen); Dyrk1A, Dyrk2 and CK2α in-house or gifts

PTK6 (Brk) = biological target: T28, PTK6 (Brk) (Homo sapiens, UniProt Q13882); test: Selectivity panel PTK6
T28 construct: purchased Life Technologies (Invitrogen SelectScreen); Dyrk1A, Dyrk2 and CK2α in-house or gifts

ZAK = biological target: T29, ZAK (Homo sapiens, UniProt Q9NYL2); test: Selectivity panel ZAK
T29 construct: purchased Life Technologies (Invitrogen SelectScreen); Dyrk1A, Dyrk2 and CK2α in-house or gifts

STK22B (TSSK2) = biological target: T30, STK22B (TSSK2) (Homo sapiens, UniProt Q96PF2); test: Selectivity panel STK22B
T30 construct: purchased Life Technologies (Invitrogen SelectScreen); Dyrk1A, Dyrk2 and CK2α in-house or gifts

IGF1R = biological target: T31, IGF1R (Homo sapiens, UniProt P08069); test: Selectivity panel IGF1R
T31 construct: purchased Life Technologies (Invitrogen SelectScreen); Dyrk1A, Dyrk2 and CK2α in-house or gifts

AURKA (Aurora A) = biological target: T32, AURKA (Aurora A) (Homo sapiens, UniProt O14965); test: Selectivity panel AURKA
T32 construct: purchased Life Technologies (Invitrogen SelectScreen); Dyrk1A, Dyrk2 and CK2α in-house or gifts

LIMK1 = biological target: T33, LIMK1 (Homo sapiens, UniProt P53667); test: Selectivity panel LIMK1
T33 construct: purchased Life Technologies (Invitrogen SelectScreen); Dyrk1A, Dyrk2 and CK2α in-house or gifts
T33 sequence (P53667 whole entry): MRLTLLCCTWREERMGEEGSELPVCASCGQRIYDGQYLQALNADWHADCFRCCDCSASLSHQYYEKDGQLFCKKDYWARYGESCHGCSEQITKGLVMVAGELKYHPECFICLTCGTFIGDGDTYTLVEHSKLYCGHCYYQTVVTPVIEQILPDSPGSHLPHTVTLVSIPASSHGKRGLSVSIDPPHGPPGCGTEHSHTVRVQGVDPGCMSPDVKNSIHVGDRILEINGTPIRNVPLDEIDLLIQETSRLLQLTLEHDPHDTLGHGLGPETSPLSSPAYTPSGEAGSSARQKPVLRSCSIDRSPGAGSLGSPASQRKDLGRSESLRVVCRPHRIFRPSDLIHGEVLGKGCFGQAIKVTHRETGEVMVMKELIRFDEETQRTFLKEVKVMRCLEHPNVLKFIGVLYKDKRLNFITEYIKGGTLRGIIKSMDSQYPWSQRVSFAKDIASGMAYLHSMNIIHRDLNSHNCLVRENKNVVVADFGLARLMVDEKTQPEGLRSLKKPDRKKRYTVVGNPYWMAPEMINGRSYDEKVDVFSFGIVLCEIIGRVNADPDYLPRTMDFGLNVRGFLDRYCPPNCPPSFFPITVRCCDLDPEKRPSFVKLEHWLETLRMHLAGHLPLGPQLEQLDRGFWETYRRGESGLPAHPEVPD

SGK (SGK1) = biological target: T34, SGK (SGK1) (Homo sapiens, UniProt O00141); test: Selectivity panel SGK
T34 construct: purchased Life Technologies (Invitrogen SelectScreen); Dyrk1A, Dyrk2 and CK2α in-house or gifts
T34 sequence (O00141 whole entry): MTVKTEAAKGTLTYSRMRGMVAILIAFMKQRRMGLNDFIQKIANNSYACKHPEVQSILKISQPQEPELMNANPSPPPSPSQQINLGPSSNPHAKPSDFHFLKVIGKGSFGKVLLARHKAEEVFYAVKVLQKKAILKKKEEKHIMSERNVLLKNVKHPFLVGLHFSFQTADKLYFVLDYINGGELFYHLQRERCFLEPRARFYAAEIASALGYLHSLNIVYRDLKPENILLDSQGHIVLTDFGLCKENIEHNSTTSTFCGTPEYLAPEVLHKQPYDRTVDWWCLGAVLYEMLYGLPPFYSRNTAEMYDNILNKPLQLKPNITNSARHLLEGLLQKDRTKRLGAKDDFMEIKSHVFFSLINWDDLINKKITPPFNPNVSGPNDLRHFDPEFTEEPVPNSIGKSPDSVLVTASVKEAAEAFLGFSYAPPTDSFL

PRKCE (PKC epsilon) = biological target: T35, PRKCE (PKC epsilon) (Homo sapiens, UniProt Q02156); test: Selectivity panel PRKCE
T35 construct: purchased Life Technologies (Invitrogen SelectScreen); Dyrk1A, Dyrk2 and CK2α in-house or gifts

CLK4 = biological target: T36, CLK4 (Homo sapiens, UniProt Q9HAZ1); test: Selectivity panel CLK4
T36 construct: purchased Life Technologies (Invitrogen SelectScreen); Dyrk1A, Dyrk2 and CK2α in-house or gifts
T36 sequence (Q9HAZ1 whole entry): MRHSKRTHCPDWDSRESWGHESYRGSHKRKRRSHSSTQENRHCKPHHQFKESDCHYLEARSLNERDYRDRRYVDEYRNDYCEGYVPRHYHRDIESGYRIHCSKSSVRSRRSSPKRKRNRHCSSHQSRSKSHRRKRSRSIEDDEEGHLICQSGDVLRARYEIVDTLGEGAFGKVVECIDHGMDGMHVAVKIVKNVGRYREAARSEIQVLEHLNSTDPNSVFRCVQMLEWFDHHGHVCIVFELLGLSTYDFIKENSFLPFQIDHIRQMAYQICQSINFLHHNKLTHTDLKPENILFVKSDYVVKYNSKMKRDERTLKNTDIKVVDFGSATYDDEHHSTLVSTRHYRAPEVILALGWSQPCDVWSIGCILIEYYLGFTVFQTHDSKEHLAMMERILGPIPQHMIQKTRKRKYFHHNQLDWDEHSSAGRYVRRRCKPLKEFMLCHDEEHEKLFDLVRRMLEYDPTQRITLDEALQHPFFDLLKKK

BRSK1 (SAD1) = biological target: T37, BRSK1 (SAD1) (Homo sapiens, UniProt Q8TDC3); test: Selectivity panel BRSK1
T37 construct: purchased Life Technologies (Invitrogen SelectScreen); Dyrk1A, Dyrk2 and CK2α in-house or gifts

TNK2 (ACK) = biological target: T38, TNK2 (ACK) (Homo sapiens, UniProt Q07912); test: Selectivity panel TNK2
T38 construct: purchased Life Technologies (Invitrogen SelectScreen); Dyrk1A, Dyrk2 and CK2α in-house or gifts

MAPK8 (JNK1) = biological target: T39, MAPK8 (JNK1) (Homo sapiens, UniProt P45983); test: Selectivity panel MAPK8
T39 construct: purchased Life Technologies (Invitrogen SelectScreen); Dyrk1A, Dyrk2 and CK2α in-house or gifts

MAP4K2 (GCK) = biological target: T40, MAP4K2 (GCK) (Homo sapiens, UniProt Q12851); test: Selectivity panel MAP4K2
T40 construct: purchased Life Technologies (Invitrogen SelectScreen); Dyrk1A, Dyrk2 and CK2α in-house or gifts

KDR (VEGFR2) = biological target: T41, KDR (VEGFR2) (Homo sapiens, UniProt P35968); test: Selectivity panel KDR
T41 construct: purchased Life Technologies (Invitrogen SelectScreen); Dyrk1A, Dyrk2 and CK2α in-house or gifts

TEK (Tie2) = biological target: T42, TEK (Tie2) (Homo sapiens, UniProt Q02763); test: Selectivity panel TEK
T42 construct: purchased Life Technologies (Invitrogen SelectScreen); Dyrk1A, Dyrk2 and CK2α in-house or gifts

c1cncc(-c2cc(-c3cncs3)cs2)c1 [Compound 29, 3-[4-(1,3-thiazol-5-yl)thiophen-2-yl]pyridine]
inhibition at 5 µM (EEF2K): 0% | inhibition at 5 µM (ROCK2): 6% | inhibition at 5 µM (MAP2K6 (MKK6)): 5% | inhibition at 5 µM (ZAP70): 4% | inhibition at 5 µM (PLK2/SNK): -3% | inhibition at 5 µM (MAPKAPK2): 2% | inhibition at 5 µM (TBK1): 3% | inhibition at 5 µM (MYLK2 (skMLCK)): 12% | inhibition at 5 µM (DAPK3 (ZIPK)): -1% | inhibition at 5 µM (PIM2): 7% | inhibition at 5 µM (MAPK1 (ERK2)): -6% | inhibition at 5 µM (RPS6KA5 (MSK1)): 15% | inhibition at 5 µM (MKNK1 (MNK1)): 83% | inhibition at 5 µM (STK23 (MSSK1)): 2% | inhibition at 5 µM (JAK2): -2% | inhibition at 5 µM (HIPK4): 7% | inhibition at 5 µM (MAPK10 (JNK3)): 4% | inhibition at 5 µM (ACVR1 (ALK2)): 51% | inhibition at 5 µM (EPHB3): 0% | inhibition at 5 µM (TAOK2 (TAO1)): -6% | inhibition at 5 µM (DYRK4): 13% | inhibition at 5 µM (NEK1): 3% | inhibition at 5 µM (NEK7): 0% | inhibition at 5 µM (IKBKB (IKK beta)): 8% | inhibition at 5 µM (PKN1 (PRK1)): -16% | inhibition at 5 µM (MAPK9 (JNK2)): -6% | inhibition at 5 µM (PDK1): -10% | inhibition at 5 µM (PTK6 (Brk)): 30% | inhibition at 5 µM (ZAK): 11% | inhibition at 5 µM (STK22B (TSSK2)): -2% | inhibition at 5 µM (IGF1R): 1% | inhibition at 5 µM (AURKA (Aurora A)): 5% | inhibition at 5 µM (LIMK1): 11% | inhibition at 5 µM (SGK (SGK1)): 20% | inhibition at 5 µM (PRKCE (PKC epsilon)): -18% | inhibition at 5 µM (CLK4): 105% | inhibition at 5 µM (BRSK1 (SAD1)): 11% | inhibition at 5 µM (TNK2 (ACK)): 8% | inhibition at 5 µM (MAPK8 (JNK1)): -1% | inhibition at 5 µM (MAP4K2 (GCK)): 32% | inhibition at 5 µM (KDR (VEGFR2)): 6% | inhibition at 5 µM (TEK (Tie2)): -1%

Source: PMC3968014, “Design and Synthesis of a Library of Lead-Like 2,4-Bisheterocyclic Substituted Thiophenes as Selective Dyrk/Clk Inhibitors” (PLoS ONE, 2014)
